# PubChem BioAssay (NCI)
#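 Test compounds were applied to cells in 96-well plates for 48 hours at 5 doses. Definition used: TGI = concentration required for complete inhibition of growth.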
# Columns and labels:
# Assay in all cases: DTP human tumour cell line panel, 48 h
# 786-0 renal = system: 786-0 renal
# A549 NSCLC = system: A549 NSCLC
# ACHN renal = system: ACHN renal
# CCRF-CEM leukemia = system: CCRF-CEM leukemia
# COLO 205 colon = system: COLO 205 colon
# DLD-1 colon = system: DLD-1 colon
# DMS 273 small cell lung = system: DMS 273 small cell lung
# EKVX NSCLC = system: EKVX NSCLC
# HCC-2998 colon = system: HCC-2998 colon
# HCT-116 colon = system: HCT-116 colon
# HCT-15 colon = system: HCT-15 colon
# HL-60(TB) leukemia = system: HL-60(TB) leukemia
# HOP-18 NSCLC = system: HOP-18 NSCLC
# HOP-62 NSCLC = system: HOP-62 NSCLC
# HOP-92 NSCLC = system: HOP-92 NSCLC
# HT29 colon = system: HT29 colon
# IGROV1 ovarian = system: IGROV1 ovarian
# K-562 leukemia = system: K-562 leukemia
# KM12 colon = system: KM12 colon
# KM20L2 colon = system: KM20L2 colon
# LOX IMVI melanoma = system: LOX IMVI melanoma
# LXFL 529 NSCLC = system: LXFL 529 NSCLC
# M14 melanoma = system: M14 melanoma
# M19-MEL melanoma = system: M19-MEL melanoma
# MOLT-4 leukemia = system: MOLT-4 leukemia
# NCI-H23 lung = system: NCI-H23 lung
# NCI-H460 lung = system: NCI-H460 lung
# NCI-H522 lung = system: NCI-H522 lung
# OVCAR-3 ovarian = system: OVCAR-3 ovarian
# OVCAR-4 ovarian = system: OVCAR-4 ovarian
# OVCAR-5 ovarian = system: OVCAR-5 ovarian
# OVCAR-8 ovarian = system: OVCAR-8 ovarian
# RPMI-8226 leukemia = system: RPMI-8226 leukemia
# RXF 393 renal = system: RXF 393 renal
# SF-268 CNS = system: SF-268 CNS
# SF-295 CNS = system: SF-295 CNS
# SK-MEL-28 melanoma = system: SK-MEL-28 melanoma
# SK-MEL-5 melanoma = system: SK-MEL-5 melanoma
# SK-OV-3 ovarian = system: SK-OV-3 ovarian
# SN12C renal = system: SN12C renal
# SNB-19 CNS = system: SNB-19 CNS
# SR leukemia = system: SR leukemia
# SW-620 colon = system: SW-620 colon
# TK-10 renal = system: TK-10 renal
# U251 CNS = system: U251 CNS
# UACC-257 melanoma = system: UACC-257 melanoma
# UACC-62 melanoma = system: UACC-62 melanoma
# UO-31 renal = system: UO-31 renal
# XF 498 CNS = system: XF 498 CNS
# A498 renal = system: A498 renal
# CAKI-1 renal = system: CAKI-1 renal
# MALME-3M melanoma = system: MALME-3M melanoma
# NCI-H226 lung = system: NCI-H226 lung
# RXF-631 renal = system: RXF-631 renal
# SF-539 CNS = system: SF-539 CNS
# SK-MEL-2 melanoma = system: SK-MEL-2 melanoma
# SNB-75 CNS = system: SNB-75 CNS
# SNB-78 CNS = system: SNB-78 CNS
compound,measurement,setting,value
COC(=O)N/N=C/c1oc(-c2cccc([N+](=O)[O-])c2)c(-c2cccc([N+](=O)[O-])c2)c1[N+](=O)[O-],TGI,786-0 renal,> 100 µM
same,TGI,A549 NSCLC,> 100 µM
same,TGI,ACHN renal,> 100 µM
same,TGI,CCRF-CEM leukemia,78.3 µM
same,TGI,COLO 205 colon,> 100 µM
same,TGI,DLD-1 colon,> 100 µM
same,TGI,DMS 273 small cell lung,> 100 µM
same,TGI,EKVX NSCLC,> 100 µM
same,TGI,HCC-2998 colon,> 100 µM
same,TGI,HCT-116 colon,> 100 µM
same,TGI,HCT-15 colon,> 100 µM
same,TGI,HL-60(TB) leukemia,55.4 µM
same,TGI,HOP-18 NSCLC,> 100 µM
same,TGI,HOP-62 NSCLC,> 100 µM
same,TGI,HOP-92 NSCLC,> 100 µM
same,TGI,HT29 colon,> 100 µM
same,TGI,IGROV1 ovarian,> 100 µM
same,TGI,K-562 leukemia,> 100 µM
same,TGI,KM12 colon,> 100 µM
same,TGI,KM20L2 colon,> 100 µM
same,TGI,LOX IMVI melanoma,> 100 µM
same,TGI,LXFL 529 NSCLC,> 100 µM
same,TGI,M14 melanoma,> 100 µM
same,TGI,M19-MEL melanoma,> 100 µM
same,TGI,MOLT-4 leukemia,89.9 µM
same,TGI,NCI-H23 lung,> 100 µM
same,TGI,NCI-H460 lung,> 100 µM
same,TGI,NCI-H522 lung,> 100 µM
same,TGI,OVCAR-3 ovarian,> 100 µM
same,TGI,OVCAR-4 ovarian,> 100 µM
same,TGI,OVCAR-5 ovarian,> 100 µM
same,TGI,OVCAR-8 ovarian,> 100 µM
same,TGI,RPMI-8226 leukemia,> 100 µM
same,TGI,RXF 393 renal,> 100 µM
same,TGI,SF-268 CNS,> 100 µM
same,TGI,SF-295 CNS,> 100 µM
same,TGI,SK-MEL-28 melanoma,> 100 µM
same,TGI,SK-MEL-5 melanoma,> 100 µM
same,TGI,SK-OV-3 ovarian,> 100 µM
same,TGI,SN12C renal,> 100 µM
same,TGI,SNB-19 CNS,> 100 µM
same,TGI,SR leukemia,> 100 µM
same,TGI,SW-620 colon,> 100 µM
same,TGI,TK-10 renal,> 100 µM
same,TGI,U251 CNS,> 100 µM
same,TGI,UACC-257 melanoma,> 100 µM
same,TGI,UACC-62 melanoma,> 100 µM
same,TGI,UO-31 renal,> 100 µM
same,TGI,XF 498 CNS,> 100 µM
O=[N+]([O-])C1C2C=CC(C2)[C@H]1c1ccccc1Cl (stereo partly specified),TGI,786-0 renal,> 100 µM
same,TGI,A498 renal,> 100 µM
same,TGI,A549 NSCLC,> 100 µM
same,TGI,ACHN renal,> 100 µM
same,TGI,CAKI-1 renal,> 10 µM
same,TGI,CCRF-CEM leukemia,> 100 µM
same,TGI,COLO 205 colon,> 100 µM
same,TGI,DLD-1 colon,> 100 µM
same,TGI,DMS 273 small cell lung,> 100 µM
same,TGI,EKVX NSCLC,> 100 µM
same,TGI,HCC-2998 colon,> 100 µM
same,TGI,HCT-116 colon,> 100 µM
same,TGI,HCT-15 colon,> 100 µM
same,TGI,HL-60(TB) leukemia,> 92.5 µM
same,TGI,HOP-18 NSCLC,> 100 µM
same,TGI,HOP-62 NSCLC,> 10 µM
same,TGI,HOP-92 NSCLC,> 75.6 µM
same,TGI,HT29 colon,> 100 µM
same,TGI,IGROV1 ovarian,> 31.6 µM
same,TGI,K-562 leukemia,> 100 µM
same,TGI,KM12 colon,> 100 µM
same,TGI,KM20L2 colon,> 100 µM
same,TGI,LOX IMVI melanoma,> 100 µM
same,TGI,LXFL 529 NSCLC,> 100 µM
same,TGI,M14 melanoma,> 100 µM
same,TGI,MALME-3M melanoma,> 100 µM
same,TGI,MOLT-4 leukemia,> 100 µM
same,TGI,NCI-H226 lung,92.2 µM
same,TGI,NCI-H23 lung,> 100 µM
same,TGI,NCI-H460 lung,> 100 µM
same,TGI,NCI-H522 lung,> 31.6 µM
same,TGI,OVCAR-3 ovarian,> 31.6 µM
same,TGI,OVCAR-4 ovarian,> 10 µM
same,TGI,OVCAR-5 ovarian,> 88.2 µM
same,TGI,OVCAR-8 ovarian,> 100 µM
same,TGI,RPMI-8226 leukemia,> 100 µM
same,TGI,RXF 393 renal,> 100 µM
same,TGI,RXF-631 renal,> 100 µM
same,TGI,SF-268 CNS,> 100 µM
same,TGI,SF-295 CNS,> 100 µM
same,TGI,SF-539 CNS,> 100 µM
same,TGI,SK-MEL-2 melanoma,> 100 µM
same,TGI,SK-MEL-28 melanoma,> 100 µM
same,TGI,SK-MEL-5 melanoma,> 100 µM
same,TGI,SK-OV-3 ovarian,> 31.6 µM
same,TGI,SN12C renal,> 100 µM
same,TGI,SNB-19 CNS,> 100 µM
same,TGI,SNB-75 CNS,60.7 µM
same,TGI,SNB-78 CNS,> 100 µM
same,TGI,SR leukemia,> 100 µM
same,TGI,SW-620 colon,> 100 µM
same,TGI,TK-10 renal,> 100 µM
same,TGI,U251 CNS,> 100 µM
same,TGI,UACC-257 melanoma,> 100 µM
same,TGI,UACC-62 melanoma,> 31.6 µM
same,TGI,UO-31 renal,97.7 µM
same,TGI,XF 498 CNS,> 100 µM
